The text below walks through data of patent US10195196B2, “1,4-disubstituted pyridazine analogs there of and methods for treating SMN-deficiency-related conditions” (NOVARTIS AG, priority 2012, dated 2019).

This experiment deals with SMN protein. Nature of the experiment: cellular SMN ELISA (SMN protein elevation). Conditions: myoblast cell line from SMNdelta7 mouse model, 24 hours treatment; for SMN activity Fold: fold activation over DMSO control. The experiment is classed as cell-based. The method, then: A cellular SMN ELISA was used to measure the effects of low molecular weight compounds on SMN protein elevation. Cells from a myoblast cell line derived from the SMNdelta7 mouse model (kind gift from Steve Burden, NYU) were seeded into a 384-well plate at a density of 3000 cells/well and treated with compounds for 24 hours. ELISA capture plates were prepared by coating 384-well plates (Immulon 4HBX) with 0.5 ug/mL of anti-SMN mAb (BD Science, Catalog number 610647) at 4° C. overnight. The plates were washed 5 times with 110 uL of PBS-Tween (0.05% Tween-20, PBST), blocked with 100 uL of 1% BSA in PBST for 2 hours and washed (5 times) with 100 uL of PBST. After 24 hours of compound treatment cells were lysed in a modified RIPA-buffer, on ice for 1 hour. 20 uL of lysate and 20 uL of 1% BSA were then added to the ELISA capture plates and incubated at 4° C. overnight. Plates were washed (5 times) with PBST and then incubated with 1:100 dilution of primary rabbit anti-SMN polyclonal antibody (Santa cruz, Catalog number SC-15320) at room temperature for 1 hour and subsequently washed (5 times) with 110 uL of PBST. This was followed by addition of 1:100 Goat anti-Rabbit IgG-HRP linked (Cell Signaling, Catalog number 7074) secondary antibody for 1 hour. Plates were then washed with PBST and incubated with 40 uL TMB substrate (Cell Signaling, Catalog number 7004L) at room temperature for 1-10 minutes with shaking. The reaction was stopped by addition of 40 uL of stop solution (Cell signaling, Catalog number 7002L) and absorption was measured at 450 nm. Data was reported as fold activation over DMSO control, and EC50.
ELISA assay condition 1: compound concentration range 20 nM-10 uM; ELISA assay condition 2: compound concentration 100 pM-10 uM.
Background: In an ELISA, binding on a coated surface is turned into a signal by an enzyme label.

Where [1] appears, read: ELISA condition 2: compound concentration 100 pM-10 uM.
The mark [2] stands for this setting: ELISA condition 1: compound concentration range 20 nM-10 uM.

Turning to `CC1CC(Oc2ccc(-c3ccc(-n4cccn4)cc3O)nn2)CC(C)N1` (single isomer, unassigned) [Example 17-3, 2-(6-((2,6-Dimethylpiperidin-4-yl)oxy)pyridazin-3-yl)-5-(1H-pyrazol-1-yl)phenol], under setting [1], the EC50 (usually the concentration that produces a half-maximal response) turned out to be 183 nM and the “SMN activity Fold” value is recorded as 2.75 Fold.
Turning to `CC1CC(Oc2ccc(-c3ccc(-n4cccn4)cc3O)nn2)CC(C)N1` (single isomer, unassigned) [Example 17-4, 2-(6-((2,6-Dimethylpiperidin-4-yl)oxy)pyridazin-3-yl)-5-(1H-pyrazol-1-yl)phenol], under setting [1], the midpoint of the response, the EC50, lay at 92 nM and the “SMN activity Fold” value turned out to be 3.25 Fold.
On to `CC1CC(Oc2ccc(-c3ccc(-n4cccn4)cc3O)nn2)CCN1` (single isomer, unassigned) [Example 17-6], for which, under setting [1], the EC50 is 443 nM and the “SMN activity Fold” value was 2.58 Fold.
For `CC1CC(Oc2ccc(-c3ccc(-n4cccn4)cc3O)nn2)CCN1` (single isomer, unassigned) [Example 17-7] the same measures were 617 nM and 2.50 Fold.
For `Oc1cc(-n2cccn2)ccc1-c1ccc(OCC2CCNC2)nn1` (single isomer, unassigned) [Example 17-8, 5-(1H-pyrazol-1-yl)-2-(6-(pyrrolidin-3-ylmethoxy)pyridazin-3-yl)phenol] the same measures were 3150 nM and 2.18 Fold.
On to `Oc1cc(-n2cccn2)ccc1-c1ccc(OCC2CCNC2)nn1` (single isomer, unassigned) [Example 17-9, 5-(1H-pyrazol-1-yl)-2-(6-(pyrrolidin-3-ylmethoxy)pyridazin-3-yl)phenol], for which, under setting [1], the response was half-maximal at 1670 nM (EC50) and the “SMN activity Fold” value is reported as 2.63 Fold.
For `CC1(C)CC(Nc2ccc(-c3ccccc3O)nn2)CC(C)(C)N1` [Example 1-3, 2-(6-(2,2,6,6-tetramethylpiperidin-4-ylamino)-pyridazin-3-yl)phenol] the same measures were 726 nM and 2.45 Fold.
For the molecule `CN(c1ccc(-c2cc3cc(C#N)ccc3s2)nn1)C1CC(C)(C)NC(C)(C)C1` [Example 1-4, 2-(6-(methyl-(2,2,6,6-tetra-methylpiperidin-4-yl)amino)pyridazin-3-yl)benzo[b]-thio-phene-5-carbonitrile], under setting [2], the EC50 amounted to 90 nM and the “SMN activity Fold” value turned out to be 2.05 Fold.
On to `CC1(C)CC(Nc2ccc(-c3cnc4ccccc4c3)nn2)CC(C)(C)N1` [Example 1-5, 6-(quinolin-3-yl)-N-(2,2,6,6-tetramethyl-piperidin-4-yl)pyridazin-3-amine], for which, under setting [2], the 50% effective concentration (EC50) was 650 nM and the “SMN activity Fold” value was 2.50 Fold.
On to `CC1(C)CC(Oc2ccc(-c3cc4ccccc4s3)nn2)CC(C)(C)N1` [Example 1-6, 3-(benzo[b]-thiophen-2-yl)-6-(2,2,6,6-tetra-methylpiperidin-4-yloxy)pyridazine], for which, under setting [2], the concentration giving a half-maximal response (EC50) came out at 2440 nM and the “SMN activity Fold” value amounted to 2.00 Fold.
For `CN(c1ccc(-c2ccccc2O)nn1)C1CC(C)(C)NC(C)(C)C1` [Example 1-7, 2-(6-(methyl-(2,2,6,6-tetra-methylpiperidin-4-yl)amino)-pyridazin-3-yl)phenol] the same measures were 1550 nM and 2.07 Fold.
With `CN(c1ccc(-c2ccc3cc(O)ccc3c2)nn1)C1CC(C)(C)NC(C)(C)C1` [Example 1-8, 6-(6-(methyl-(2,2,6,6-tetra-methylpiperidin-4-yl)amino)-pyridazin-3-yl)naphthalen-2-ol], under setting [2], the midpoint of the response, the EC50, lay at 320 nM and the “SMN activity Fold” value was 2.18 Fold.
Turning to `CC1(C)CC(Oc2ccc(-c3ccc4ccncc4c3)nn2)CC(C)(C)N1` [Example 1-10, 7-(6-((2,2,6,6-tetramethylpiperidin-4-yl)oxy)pyridazin-3-yl)isoquinoline], under setting [1], the EC50 worked out at 1100 nM and the “SMN activity Fold” value was determined as 2.75 Fold.
With `CC1(C)CC(Oc2ccc(-c3ccc4cnccc4c3)nn2)CC(C)(C)N1` [Example 1-11, 6-(6-((2,2,6,6-tetramethylpiperidin-4-yl)oxy)pyridazin-3-yl)isoquinoline], under setting [1], the half-maximal effective concentration (EC50) was found to be 3900 nM and the “SMN activity Fold” value worked out at 2.67 Fold.
For `CN(c1ccc(-c2ccc3cccnc3c2)nn1)C1CC(C)(C)NC(C)(C)C1` [Example 1-12, N-methyl-6-(quinolin-7-yl)-N-(2,2,6,6-tetramethyl-piperidin-4-yl)pyridazin-3-amine] the same measures were 367 nM and 2.54 Fold.
For `CN(c1ccc(-c2ccc3ncccc3c2)nn1)C1CC(C)(C)NC(C)(C)C1` [Example 1-13, N-methyl-6-(quinolin-6-yl)-N-(2,2,6,6-tetramethylpiperidin-4-yl)pyridazin-3-amine] the same measures were 661 nM and 2.22 Fold.
The corresponding values for `CN(c1ccc(-c2ccc3ccncc3c2)nn1)C1CC(C)(C)NC(C)(C)C1` [Example 1-14, 6-(isoquinolin-7-yl)-N-methyl-N-(2,2,6,6-tetramethylpiperidin-4-yl)pyridazin-3-amine] are 252 nM and 3.13 Fold.
Consider `CN(c1ccc(-c2ccc3cnccc3c2)nn1)C1CC(C)(C)NC(C)(C)C1` [Example 1-15, 6-(isoquinolin-6-yl)-N-methyl-N-(2,2,6,6-tetramethylpiperidin-4-yl)pyridazin-3-amine], for which, under setting [1], the EC50 was 197 nM and the “SMN activity Fold” value stood at 2.93 Fold.
The corresponding values for `CN(c1ccc(-c2ccc3nccn3c2)nn1)C1CC(C)(C)NC(C)(C)C1` [Example 1-16, 6-(imidazo[1,2-a]pyridin-6-yl-pyridazin-3-yl)-methyl-(2,2,6,6-tetramethyl-piperidin-4-yl)-amine] are 2980 nM and 2.28 Fold.
In the case of `CN(c1ccc(-c2ccc(-c3ccccc3)nc2)nn1)C1CC(C)(C)NC(C)(C)C1` [Example 1-17, methyl-[6-(6-phenyl-pyridin-3-yl)-pyridazin-3-yl]-(2,2,6,6-tetramethyl-piperidin-4-yl)-amine], under setting [1], the EC50 was found to be 926 nM and the “SMN activity Fold” value worked out at 2.37 Fold.
For the molecule `CN(c1ccc(-c2ccc(-n3cccc3)nc2)nn1)C1CC(C)(C)NC(C)(C)C1` [Example 1-18, methyl-[6-(6-pyrrol-1-yl-pyridin-3-yl)-pyridazin-3-yl]-(2,2,6,6-tetramethyl-piperidin-4-yl)-amine], under setting [2], it took 1130 nM to reach a half-maximal effect (EC50) and the “SMN activity Fold” value turned out to be 2.69 Fold.
As to `CN(c1ccc(-c2ccc(-n3cccn3)nc2)nn1)C1CC(C)(C)NC(C)(C)C1` [Example 1-19, methyl-[6-(6-pyrazol-1-yl-pyridin-3-yl)-pyridazin-3-yl]-(2,2,6,6-tetramethyl-piperidin-4-yl)-amine], under setting [2], the EC50 came out at 740 nM and the “SMN activity Fold” value is listed as 3.10 Fold.
As to `CN(c1ccc(-c2cnc3ccccc3n2)nn1)C1CC(C)(C)NC(C)(C)C1` [Example 1-20, methyl-(6-quinoxalin-2-yl-pyridazin-3-yl)-(2,2,6,6-tetramethyl-piperidin-4-yl)-amine], under setting [2], the EC50 amounted to 470 nM and the “SMN activity Fold” value worked out at 3.04 Fold.
Turning to `CN(c1ccc(-c2cnc3ccccc3c2)nn1)C1CC(C)(C)NC(C)(C)C1` [Example 1-21, methyl-(6-quinolin-3-yl-pyridazin-3-yl)-(2,2,6,6-tetramethyl-piperidin-4-yl)-amine], under setting [2], the EC50 was found to be 630 nM and the “SMN activity Fold” value came to 2.49 Fold.
As to `CN(c1ccc(-c2ccc3cnncc3c2)nn1)C1CC(C)(C)NC(C)(C)C1` [Example 1-22, N-methyl-6-(phthalazin-6-yl)-N-(2,2,6,6-tetramethylpiperidin-4-yl)pyridazin-3-amine], under setting [1], the concentration for a half-maximal effect (EC50) was 867 nM and the “SMN activity Fold” value is 2.71 Fold.
As for `CC1(C)CC(Nc2ccc(-c3ccc4nonc4c3)nn2)CC(C)(C)N1` [Example 2-1, 6-(benzo[c][1,2,5]oxa-diazol-5-yl)-N-(2,2,6,6-tetramethyl-piperidin-4-yl)pyridazin-3-amine], under setting [2], the midpoint of the response, the EC50, lay at 1370 nM and the “SMN activity Fold” value is given as 2.68 Fold.
For the molecule `CC1(C)CC(Nc2ccc(-c3ccc4scnc4c3)nn2)CC(C)(C)N1` [Example 2-2, 6-(benzo[d]thiazol-5-yl)-N-(2,2,6,6-tetramethyl-piperidin-4-yl)pyridazin-3-amine], under setting [2], the concentration giving a half-maximal response (EC50) is 1030 nM and the “SMN activity Fold” value is recorded as 2.37 Fold.
The corresponding values for `Cc1nc2ccc(-c3ccc(NC4CC(C)(C)NC(C)(C)C4)nn3)cc2o1` [Example 2-3, 6-(2-methylbenzo-[d]oxazol-6-yl)-N-(2,2,6,6-tetramethyl-piperidin-4-yl)pyridazin-3-amine] are 1200 nM and 2.46 Fold.
